Reference: article PMC12175168, “Refining the Amino Reactivity-Based Identification of Respiratory Sensitizers” (Chemical Research in Toxicology, 2025)
Values joined by “and” are separate entries in the source; they are usually repeats but may differ in a detail not shown here. Identical values can stand only once. “Also recorded” adds a separate entry of the source. Like-named read-outs stand apart in the source and are kept apart here. Marks after values point to notes of the source that are not given here.

Experiments:
[1] = DPRA-like chemoassay with Gly-pNA (24 h percent depletion); conditions: PPB pH 7.4, 24 h, 25 °C, 50-fold excess of test compound
Description: (§1) In addition to the kinetic Gly-pNA chemoassay, the reactivity of the 27 compounds toward Gly-pNA and Lys-pNA was determined in terms of percentage depletions after reacting for 24 h at 25 °C employing the following DPRA-like setup: stock solutions for the test compounds were prepared by gravimetrically adding at least 3 mg of the respective compound into a glass vial (total volume 1.8 mL) and subsequent addition of 1 mL ACN. […] The stock solutions for Gly-pNA and Lys-pNA with a final concentration of 1.7 mM were prepared by dissolving the required amount in one of the three aqueous buffer solutions used for this DPRA-like chemoassay: phosphate buffer (80 mM, pH 7.4), phosphate buffer (80 mM, pH 10.2), and ammonium acetate buffer (100 mM, pH 10.2). Glass vials (1.8 mL) were used as reaction vessels.
(§2) In the final reaction mixtures, the concentration of Gly-pNA or Lys-pNA was 0.03 mM, and the test compound was 50 times in excess (1.5 mM). After incubation for 24 h at 25 °C, the free amount of either Gly-pNA or Lys-pNA was determined using the HPLC UV–vis method described for the kinetic Gly-pNA chemoassay. , The percentage depletion of Gly-pNA (D Gly) or Lys-pNA (D Lys) was determined directly from peak areas according to eq 3 Dx[%]=(Axcontrol−Ax/Axcontrol×100)withx=GlyorLys
(§3) In eq , A x and A x ^control are the peak areas of the chromatographic signal of either Gly-pNA (x = Gly) or Lys-pNA (x = Lys) at 315 nm after 24 h incubation with and without test compound, respectively.
(§4) Summary of experimental conditions of the DPRA-like setups used to determine
(§5) DGly, D Lys, and D DPRA data in Table 2 (main text).
(§6) Table S2. Overview of experimental conditions for the DPRA-like setups used to
(§7) determine 24 h percentage depletion rates for the reaction of the test compounds with
(§8) Gly-pNA, Lys-pNA, and the DPRA lysine peptide (literature data).

[2] = DPRA-like chemoassay with Lys-pNA (24 h percent depletion); conditions: 25 °C, 50-fold excess of test compound
Description: as §1, §2, §3, §4, §5, §6, §7, §8

[3] = Stability assessment of test compounds in aqueous buffers (half-lives)
Description: To this end, the test compound was dissolved in 1 mL ACN in a glass vial. […] As reaction batches, 1.8 mL glass vials equipped with 400 μL glass inserts were used and filled with 220 μL of the respective aqueous buffer and 80 μL of the test compound stock solution. The depletion of the test compounds was recorded with the HPLC UV–vis instrument used for the kinetic Gly-pNA chemoassay. , Chromatographic separation of the reaction mixture was achieved using the gradient described for the Gly-pNA chemoassay previously , and an isocratic HPLC method (water/ACN 70:30, both with 0.1 vol % formic acid). The wavelengths used for the detection of the compound and the information on the used chromatographic method are given in the Supporting Information in Table S3.

DPRA lysine peptide = test system: DPRA lysine peptide; parameters: method as in literature; conditions: AAB pH 10.2, 24 h; ref literature; cited from earlier work
[4] = ref Krutz et al., Sadekar et al., Ponder et al., Karol et al., Hopkins et al.; cited from earlier work
[5] = Kinetic Gly-pNA chemoassay (second-order rate constant k Gly); conditions: reaction with Gly-pNA, nominal test compound concentration; for k Gly ± s(k Gly), second-order rate constant: phosphate buffer 80 mM, 25 °C, ≥ values are minimum reactivity; for log k Gly: phosphate buffer;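 as to all read-outs here: Gly-pNA depletion followed over time by chromatographic peak area, with test compound in at least tenfold excess (pseudo-first-order), added from acetonitrile stock, at least three runs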
Description: The reactivity of the 27 test compounds toward Gly-pNA was quantified in terms of the second-order reaction rate constant k Gly using our Gly-pNA chemoassay. , In brief, stock solutions of the test compound were freshly obtained every day by gravimetrically adding the required amount into a 10 mL volumetric flask, which was subsequently filled to volume with acetonitrile (ACN). The required amounts of test compounds depended on their reactivity toward Gly-pNA. […] As usual for kinetic studies, fast reacting chemicals are applied at lower concentrations than little reactive candidates. All stock solutions were stored at 25 °C in a climate chamber before first use (ca. 30 min) and for repeating an experiment (max. 6 h). Gly-pNA stock solution (1.69 mM) was obtained by dissolving 3.3 mg Gly-pNA in 10 mL phosphate buffer solution (80 mM) and could be used for several weeks if stored at 4 °C. For all chemoassay experiments, 1.8 mL glass vials were used as reaction batches, which were initially filled with 1070 μL phosphate buffer (80 mM) and 30 μL Gly-pNA stock solution. To start the reaction, 400 μL of the test compound stock solutions was added. […] The time between the start of the reaction and the first analysis was measured with an electronic time clock. All reactions were performed under pseudo-1st order conditions with the electrophile being at least ten times in excess over Gly-pNA.
For these compounds, the minimum reactivity was estimated in terms of k Gly by plotting ln (A Gly ^ t /A Gly ^0) vs reaction time t (with A Gly ^ t and A Gly ^0 being the peak areas under the chromatographic signal for Gly-pNA at time t and at the beginning of the reaction (t = 0)). Linear regression through 0 (at t = 0) and the first measurement point yields slope s (see Figure S1) which is the pseudo-1st order rate constant k Gly ^pseudo that can be converted with the initial test compound concentration in the reactions mixture (c) into k Gly according to eq . 1 kGly=kGlypseudo/c
2 Ln(AGlyt/AGly0)≈−kGly·c·t+0.5·kGly·kloss·c·t^2 Here k loss is the first order rate constant covering all processes contributing to the loss of the test compounds, except the reaction with Gly-pNA. The regression parameter of the linear part of eq (= k Gly·c) is the pseudo-1st order rate constant k Gly ^pseudo and can be converted into k Gly according to eq (see above).
Linear regression of these plots provides slope s, which is again the pseudo-1st order rate constant, k Gly ^pseudo, and can be used to calculate k Gly according to eq . All experiments to determine k Gly have been conducted at least three times.

[6] = parameters: method as in our previous work; conditions: reaction with Gly-pNA; ref our previous work; cited from earlier work
[7] = parameters: method as in our previous work; conditions: PPB pH 7.4, 24 h; ref our previous work; cited from earlier work
[8] = AAB (ammonium acetate buffer) pH 10.2, 24 h
[9] = buffer, pH 7.4, half-lives t 1/2 ± s(t 1/2), PPB (phosphate buffer 80 mM) pH 7.4
[10] = buffer, pH 10.2, half-lives t 1/2 ± s(t 1/2), AAP (ammonium acetate buffer 100 mM) pH 10.2
[11] = buffer, pH 10.2, half-lives t 1/2 ± s(t 1/2), PPB (phosphate buffer 80 mM) pH 10.2
[12] = PPB (phosphate buffer 80 mM) pH 7.4
[13] = aqueous ammonium acetate buffer with acetonitrile, pH 10.2
[14] = aqueous phosphate buffer with acetonitrile, pH 7.4
[15] = aqueous phosphate buffer with acetonitrile, pH 10.2

Row | Structure (SMILES) | D Gly ± s(D Gly), 24 h percent depletion of Gly-pNA [1] | D Lys ± s(D Lys), 24 h percent depletion of Lys-pNA [2, 8] [%] | D Lys ± s(D Lys), 24 h percent depletion of Lys-pNA ([2]; PPB pH 10.2, 24 h) [%] | half-life [3, 9] [min] | half-life [3, 10] [min] | half-life [3, 11] [min] | D DPRA ± s(D DPRA), depletion of the DPRA lysine peptide (DPRA lysine peptide) [%] | Classification as potential respiratory sensitizer or non-sensitizer [4] | k Gly ± s(k Gly), second-order rate constant [5] | log k Gly [5] | half-lives t 1/2 ± s(t 1/2) [3, 12] | half-life [3, 13] [min] | half-life [3, 14] [min] | half-life [3, 15] [min] | half-lives t 1/2 ± s(t 1/2) ([3]; AAP (ammonium acetate buffer 100 mM) pH 10.2) | half-lives t 1/2 ± s(t 1/2) ([3]; PPB (phosphate buffer 80 mM) pH 10.2) | k Gly ± s(k Gly), second-order rate constant [6] [L mol^–1 min^–1] | log k Gly [6] | D Gly, 24 h percent depletion of Gly-pNA [7]
1 | O=C=Nc1ccc(Cc2ccc(N=C=O)cc2)cc1 [A4, 4,4′-methylene diphenyl diisocyanate] | 100% | 22.9 ± 4.4 | 100 | 5.9 ± 1 | < 1 | 4.6 ± 0.3 | 23.0 ± 6.2 | potential respiratory sensitizer | ≥20015 ± 4486 L mol^–1 min^–1 | – | – | – | – | – | – | – | – | – | –
2 | O=C=Nc1ccccc1 [A5, phenyl isocyanate] | 100% | 10.2 ± 0.7 | 100 | < 1 | < 1 | < 1 | 48.4 ± 1.1 | potential respiratory sensitizer | ≥2368 ± 309 L mol^–1 min^–1 | ≥3.37 | – | – | – | – | – | – | – | – | –
3 | O=C1OC2(c3ccc(O)cc3Oc3cc(O)ccc32)c2ccc(N=C=S)cc21 [B3, fluorescein isothiocyanate] | 100% | 56.5 ± 0.3 | 100 | – | 8.21 ± 0.18 | 3500 ± 236 | 61.1 | potential respiratory sensitizer | 15.1 ± 2.6 L mol^–1 min^–1 | – | no depletion | – | – | – | – | – | – | – | –
4 | O=C1OC(=O)c2ccccc21 [C1, phthalic anhydride] | 100% | 22.6 ± 7.4 | 100 | – | – | – | 69.2 ± 22.0 | potential respiratory sensitizer | ≥22480 ± 1197 L mol^–1 min^–1 | – | – | < 1 | 89.5 ± 4.1 | < 1 | – | – | – | – | –
5 | O=C(O)c1ccc2c(c1)C(=O)OC2=O [C2, trimellitic anhydride] | 100% | 15.2 ± 0.6 | 100 | – | – | – | 59.9 ± 22.0 | potential respiratory sensitizer | ≥22271 ± 1975 L mol^–1 min^–1 | 4.35 | – | < 1 | 110 ± 10 | 1 | – | – | – | – | –
6 | O=C1OC(=O)c2c(Cl)c(Cl)c(Cl)c(Cl)c21 [C3, tetrachlorophthalic anhydride] | 100% | 11.5 ± 1.8 | 99.2 ± 0.7 | 24.3 ± 0.6 | < 1 | < 1 | 83.5 ± 0.7 | potential respiratory sensitizer | ≥9816 ± 858 L mol^–1 min^–1 | 3.99 | – | – | – | – | – | – | – | – | –
7 | O=C1OC(=O)C2CCCCC12 (stereo not drawn) [D1, hexahydrophthalic anhydride] | 100% | 12.5 ± 0.5 | 100 | – | – | – | 56.4 ± 29.4 | potential respiratory sensitizer | 2900 ± 110 L mol^–1 min^–1 | 3.46 | – | < 1 | 4.36 ± 0.36 | 1.2 | – | – | – | – | –
8 | O=[N+]([O-])c1ccc(S(=O)(=O)O)c([N+](=O)[O-])c1 [E5, 2,4-dinitrobenzenesulfonic acid] | 5.9% and 5.9 ± 0.3% | 0.9 ± 0.1 | 0 | – | – | – | 27.4 | non-sensitizer | not reactive | – | no depletion | – | – | – | did not show any significant signal depletion; also recorded: no depletion | no depletion | – | – | –
9 | C=CC(=O)OC [F2, methyl acrylate] | 16.6 ± 0.4% | 55.5 ± 0.7 | 67.9 ± 1.6 | – | 629 ± 48 | 943 ± 63 | 86.5 ± 5.2 | non-sensitizer | 0.108 ± 0.005 L mol^–1 min^–1 | –0.97 | no depletion | – | – | – | – | – | – | – | –
10 | C=CC(=O)OCCCC [F3, butyl acrylate] | 15.2 ± 0.2% | 61.3 ± 0.4 | 74.4 ± 1.5 | – | 929 ± 59 | 4250 ± 1800 | 87.8 ± 3.8 | non-sensitizer | 0.0826 ± 0.0141 L mol^–1 min^–1 | –1.08 | no depletion | – | – | – | – | – | – | – | –
11 | C=CC(=O)OCC [F4, ethyl acrylate] | 14.4 ± 0.6% | 55.8 ± 0.4 | 67.1 ± 1.4 | – | – | – | 90.3 ± 6.6 | non-sensitizer | 0.0795 ± 0.0001 L mol^–1 min^–1 | – | no depletion | 880 ± 119 | – | 1350 ± 172 | – | – | – | – | –
12 | O=CCCCC=O [G1, glutaraldehyde] | – | 7.2 ± 1.7 | 97.9 ± 0.6 | – | – | – | 82.8 ± 7.6 | – | – | – | – | – | – | – | – | – | 17731 ± 2525 | 4.25 | 100 ^c %
